Data taken from US9895390B2, “Methods and assays for combination treatment of cancer” (CHILDREN'S MEDICAL CENTER CORPORATION, priority 2012, dated 2018).
Read-outs that look alike come from different tables or passages of the source.

Columns and labels:
[1] = test system: BRG1 mutant and BRG1 wild-type cell lines; test: Gefitinib dose response curves, 4 days; type: cell-based, human; conditions: data not shown
[2] = test system: human NSCLC lines; test: Cytotox assays: chemotherapy dose response curves with or without EZH2 inhibitor, 4 days; type: cell-based; conditions: for IC50: various NSCLC cell lines, 4 days, read-out: etoposide IC50
Protocol: Cell lines were dissociated, counted and plated at 5000 cells per well in flat bottom opaque tissue culture treated 96 well plates (CytoOne). Edge wells were filled with PBS. The following day, 2× drug diluted in media was added to each well such that the well then contained 100 ul media with 1× drug concentration. After 4 days, Cell Titer Glo™ (Promega) was added and luminescence was read on a BioTec plate reader to determine relative cell number in each well. Data were averaged for triplicate or quadruplicate technical replicates, normalized to the untreated wells and input into GraphPad Prism software to extrapolate IC50.
Cell lines were dissociated, counted and plated at 5000 cells per well in flat bottom opaque tissue culture treated 96 well plates (CytoOne). Edge wells were filled with PBS. The following day, 2× drug diluted in media was added to each well such that the well then contained 100 ul media with 1× drug concentration at the following doses: etoposide; 0, 0.1, 1, 3, 5, 7, 10, 50, 100, 500 μM, cisplatin; 0, 0.1, 1, 5, 10, 30, 70, 100, 500 μM, or doxorubicin; 0, 0.01, 0.1, 0.5, 1, 3, 5, 7, 10, 50 μM. […] Data were averaged for triplicate or quadruplicate technical replicates and normalized to the untreated wells. Results from three or four independent biological replicate experiments were input into […] PRISM™ software to extrapolate IC50 and s.e.m. of IC50 for a given cell line.

[3] = test system: EZH2 and H3K27me3; test: Western Blot for EZH2 and H3K27me3 on whole cell extracts; type: cell-based, human; conditions: 10 μM GSK126, 7 days in culture
Protocol: For Western blotting, 25 μg of protein extract per sample was denatured with heat and reducing agents, separated on a 4-12% acrylimide gel and transferred to nitrocellulose. Antibodies used for Western blotting were: EZH2 (Cell Signalling), β-actin (AbCAM) and H3K27me3 (Upstate).
Whole cell extracts were made in RIPA buffer (0.5% Deoxycholate, 1% IGEPAL-CA630, 0.1% sodium dodecyl sulfate, 150 mM NaCL, 50 mM Tris-8.1), lysates were cleared by centrifugation, and protein concentrations were quantified with the Pierce BCA Protein Assay Kit (Thermo). For Western blotting, 25 μg of protein extract per sample was denatured with heat and reducing agents, separated on a 4-12% acrylimide gel (BioRad) and transferred to nitrocellulose (GE Healthcare). Antibodies used for Western blotting were: EZH2 (clone D2C9; Cell Signaling; 1:200), Histone H3 (polyclonal; AbCAM ab1791; 1:2000) and H3K27me3 (polyclonal; Millipore 07-449; 1:1000) all incubated overnight at 4° C. Secondary antibody, anti-rabbit-HRP (Santa Cruz sc-2313; 1:5,000), was incubated for 1 hour at room temperature. After washing, chemi-luminescence was visualized with Western Lightning Plus-ECL (PerkinElmer) and exposure onto KODAK BioMax XAR™ film.

For COc1cc2ncnc(Nc3ccc(F)c(Cl)c3)c2cc1OCCCN1CCOCC1 [gefitinib], the “gefitinib sensitivity of BRG1 mutant vs BRG1 wild-type cell lines” value [1] was “slightly more sensitive”.

In the case of N.N.[Cl][Pt][Cl] [cisplatin], the “cisplatin IC30” value ([2]; NSCLC cell lines, approximate) is reported as about 5 µM.

With COc1cc([C@@H]2c3cc4c(cc3[C@@H](O[C@@H]3O[C@@H]5CO[C@@H](C)O[C@H]5[C@H](O)[C@H]3O)[C@H]3COC(=O)[C@H]23)OCO4)cc(OC)c1O [etoposide] the IC50 ([2]; Homo sapiens, 96 h, approximate) was about 10 µM and the IC50 ([2]; approximate) was about 5 µM.

With CC[C@H](C)n1cc(C)c2c(C(=O)NCc3c(C)cc(C)[nH]c3=O)cc(-c3ccc(N4CCNCC4)nc3)cc21 [GSK126] the EZH2 levels [3] was “remained unchanged”, the H3K27me3 levels [3] was “marked decrease” and the “etoposide dose response: classes of GSK126 treated cell lines” value ([2]; 10 μM GSK126) was “same TopoII inhibitor-sensitized and -protected classes”.
